The values that follow come from patent publication US9139523B2, “5-HT2B receptor antagonists” (Janssen Pharmaceutica, NV, priority 2010, dated 2015).

Assay type in all cases: in vivo
Series [1] in a line: Monocrotaline-induced pulmonary arterial hypertension in the rat. To be noted: male, Sprague Dawley, in vivo, po, rat, 2 hours post-dosing at day 21, read-out: mean plasma concentration. The procedure:
(§1) Compound (−)-17 was tested in monocrotaline-induced pulmonary arterial hypertension in the rat (see e.g., Stenmark et al, 2009, Am J Physiol Lung Cell Mol Physiol 297, L1013-L1032). Measurements included: mean arterial blood pressure and right ventricular pressure in vivo, ratio of right ventricular weight to left ventricular weight plus septum as an index of right ventricular hypertrophy, pulmonary artery acceleration time, and histological assessement of muscularization of pulmonary arteries.
(§2) Monocrotaline was dissolved in 1 N HCl and then into distilled water, and pH was adjusted to 7.4 using NaOH. A single dose of 60 mg/kg monocrotaline was administered subcutaneously on day 0 to three groups of male Sprague Dawley rats. The test article Compound (−)-17 was dissolved in 20% hydroxypropyl-beta-cyclodextrin with NaOH, HCl and mannitol in pyrogen-free water and administered orally by gavage (10 ml/kg) once daily from day 1 for 21 days at 10 mg/kg and 50 mg/kg. […] Corresponding volumes of 20% hydroxypropyl-beta-cyclodextrin vehicle were administered orally according to the same protocol in a third group of animals.

The test system of series [2] is monocrotaline-induced pulmonary arterial hypertension. Described as above. The conditions noted are these: for MAP / PAAT / RV/(LV + S) / RVP: Day 21, mean ± SD. The procedure: as §1, §2
Series [3] can be described thus: Pharmacokinetic evaluation in the rat. To be noted: male Sprague Dawley rat. The procedure:
For intravenous (i.v.) administration, Compound (−)-17 was dissolved in saline containing 20% (w/v) hydroxy-propyl-beta-cyclodextrin (HPbCD) at a concentration of 1 mg/mL and administered (2.5 mL/kg) to male Sprague Dawley rats (n=1) as a bolus via a saphenous vein at a dose level of 2.5 mg/kg. For oral (p.o.) administration, Compound (−)-17 was dissolved in water containing 20% (w/v) HPbCD at a concentration of 1 mg/mL and administered (10 mL/kg) to male Sprague Dawley rats (n=3) via gavage at a dose level of 10 mg/kg. Blood samples were collected via a tail vein at serial time points up to 24 h after dosing. Plasma was obtained by centrifugation and stored at −20° C. prior to analysis. Analysis was performed using liquid chromatography (LC) with tandem mass spectrometric detection (MS/MS) in positive ion mode. Compound (−)-17 was eluted from a reversed phase column with a gradient of acetonitrile and water containing 0.1% (v/v) formic acid. At the time of analysis plasma samples (50 uL) were thawed and […] with at least three volumes of acetonitrile and centrifuged. Aliquots of the supernatant were injected onto a reversed phase UPLC column and analysed via electrospray Mass Spectrometry. Calibration standards and quality controls, analysed before and after the samples, were prepared in rat plasma at the same time as the study samples. The accuracy (intra branch accuracy from independent QC samples) was between 85% and 115% of the nominal value over the entire concentration range. Non-compartmental pharmacokinetic analysis of the plasma concentration-time curves was performed using WinNonLin to provide estimates of the plasma clearance (CLp), volume of distribution at steady-state (Vss), terminal phase elimination half-life (t½) and oral bioavailability (F), the results are summarised in Table 8.

Where [4] appears, read: 10 mg/kg p.o. once daily 21 days.
Setting [5] is: 50 mg/kg p.o. once daily 21 days.
Setting [6] is: rat, 10 mg and 50 mg p.o. once daily, three weeks.

Where two headings read alike, the source gives them in different places.

`COc1cc(N)c(Cl)cc1C(=O)NC1CCN(CCCOc2ccc(F)cc2)CC1(F)F` (single isomer, unassigned) [Compound (−)-17, 4-amino-5-chloro-N-{3,3-difluoro-1-[3-(4-fluorophenoxy)-propyl]-piperidin-4-yl}-2-methoxybenzamide]: the concentration at 2 h in series [1] (10 mg/kg, 10 mg p.o. once daily) is about 80 ng/mL. The concentration at 2 h in series [1] (50 mg/kg, 50 mg p.o. once daily) worked out at 1000 ng/mL. In series [2] (setting [4]), the MAP is given as 93.7 ± 14.11 mmHg, the PAAT is given as 15.91 ± 2.76 ms, the “RV/(LV + S)” value amounted to 0.46 ± 0.08 and the RVP is reported as 43.18 ± 7.38 mmHg. Moreover, in series [2] (setting [5]), the MAP is 97.58 ± 9.74 mmHg, the PAAT stood at 15.42 ± 2.62 ms, the “RV/(LV + S)” value was 0.41 ± 0.08 and the RVP is 42.85 ± 11.55 mmHg. Moreover, in series [2] (rat, 10 mg and 50 mg p.o. once daily), the “toxicity of three-week treatment” value is “non-toxic”. In series [2] (setting [6]), the “effect on mean arterial blood pressure (MAP)” value is “no effect”, the “effect on pulmonary artery acceleration time (PAAT)” value was “increased”, the “effect on right ventricular hypertrophy RV/(LV+S)” value is reported as “reduced” and the “effect on right ventricular pressure (RVP)” value is “reduced”. Also, the “monocrotaline-induced thickening of wall of small pulmonary arteries” value in series [2] (rat, 10 mg p.o. three weeks (P<0.005)) is recorded as “reduced”. Further, the “monocrotaline-induced thickening of wall of small pulmonary arteries” value in series [2] (rat, 50 mg/kg p.o. three weeks (P=0.0539)) is listed as “reduced”. This compound displayed a F in series [3] (p.o. 10 mg/kg vs i.v. 2.5 mg/kg) of 19%. Also, the half-life in series [3] (plasma, intravenous, 2.5 mg/kg, read-out: t½ (converted)) is 66 min. Moreover, the clearance (as a rule, a measure of how efficiently the substance is removed, as volume per time) in series [3] (plasma, iv, i.v. 2.5 mg/kg (n=1)) is 46 mL/min/kg. In series [3] (plasma, iv, i.v. 2.5 mg/kg (n=1), read-out: Vss), the Vd was 3.1 L/kg. In addition, in series [3] (plasma, po, p.o. 10 mg/kg), the AUC(0-t) (commonly the area under the concentration-time curve up to a stated or last time point) was found to be 686 ± 254 ng·h/mL, the peak concentration (Cmax) (commonly the highest concentration seen after dosing) came to 119 ± 37 ng/mL and the Tmax (commonly the time from dosing to the highest level) is 30 min.
